The subject of assay [1] is human melanoma cells SK-Mel28. Kind of assay: Cellular uptake of fluorescent compounds by CLSM with fluorescence quantification (Example 2, Fig. 3). It is filed as cell-based. To be noted: 20 µM in DMF, 5 hrs; for fluorescence signal: excitation 488 nm, background subtracted; for difference in the uptake between SK-Mel28 and HeLa cells: SK-Mel28 versus HeLa (negative control). On the procedure: The cellular uptake of the fluorescent compounds according to the present invention was studied by treatment of human melanoma cells SK-Mel28 and HeLa cells (human cervix carcinoma cell line as a negative control, common model cell line) and their investigation via CLSM (confocal laser scanning microscopy).
(§1) The aforementioned cells were seeded in an ibidi® µ-slide 8 well in a density of 2x10^5/mL and cultured for two days to confluency, before being treated with the fluorescent compounds in a concentration of 20 µM in DMF (dimethylformamide). After an incubation time of 5 hrs, the adherent cell layers were washed three times with PBS (phosphate buffered saline) and the nuclei were stained with Hoechst 33342 (Invitrogen, 0.5 µg/mL, 20 min). During the microscopic studies (Leica TCS-SP-5, inverted microscope), the fluorescent compounds were excited using an Ar-laser at 488 nm. Excitation of the Hoechst dye was accomplished with an UV-Laser at 351 and 364 nm. Due to the overlap of the emission spectra of both dyes, a sequential mode was chosen for recording the cell images.
The resulting cell images were analyzed in terms of fluorescence quantification at 488 nm excitation using the software imaged 1.50i (Wayne Rasband, National Institutes of Health, USA).
From each cell image, five cells were selected as regions of interest and the related fluorescence signals were quantified (mean value and standard deviation). Additionally, three cell-free regions were selected in each cell image as background and the resulting background signal from these regions was subtracted from the cell signal.

A further assay has as its system MEB4 cells. Nature of the assay: Cellular uptake of the MSF in 2D cell culture, evaluated by CLSM (Example 1). In kind it is cell-based, murine. To be noted: 20 µM in DMF, 5 hrs. On the procedure: (§2) Two-dimensional cell cultures were treated with the fluorescent compound (I-1) as the MSF, represented by the following formula: [drawing 22]
(§3) Diverse cell lines as well as primary skin cells such as U2OS, SHSY, A459, H4, Hek293, HepG2, HCT116, U251, MCF-7, Ratfib, HUVEC, Fibroblasts, and HeLa were treated with the MSF at a concentration of 20 µM in DMF (dimethylformamide) for 5 hrs and subsequently evaluated by means of CLSM (confocal laser scanning microscopy).
(§4) In addition, murine (MEB4) as well as human (SK-Mel28) malignant melanoma cells were treated with the MSF under the same conditions.
(§5) The experimental procedure was similar to that of Example 2, as described below.
as §1, with “Due to the overlap of the emission spectra of both dyes, a sequential mode was chosen for recording the cell images.” left out

The subject of a further assay is HeLa cells. Nature of the assay: Cellular uptake of the MSF in 2D cell culture, evaluated by CLSM (Example 1), non-affected control cells. It is filed as cell-based, human. To be noted: 20 µM in DMF, 5 hrs. On the procedure: as §2, §3, §4, §5
as §1, with “Due to the overlap of the emission spectra of both dyes, a sequential mode was chosen for recording the cell images.” left out

Results on 6 molecules are retold here after patent publication EP3373009A1, “FLUORESCENT COMPOUNDS FOR THE DETECTION OF MALIGNANT MELANOMA” (Karlsruher Institut für Technologie, priority 2017, dated 2018).

For `O=C(NCCCCNC(=O)C1(F)C#CCCCCC1)c1ccc(-c2c3ccc(=O)cc-3oc3cc(O)ccc23)c(C(=O)O)c1` (stereo not shown) [I-25], in assay [1], the fluorescence signal entry is reported as “slightly weaker fluorescence signals”; the “difference in the uptake between SK-Mel28 and HeLa cells” value (shortened to “difference”) is “significant differences in the uptake”.
For `O=C(c1ccccc1-c1c2ccc(=O)cc-2oc2cc(O)ccc12)N1CCN(C(=O)C23CC4CC(CC(C4)C2)C3)CC1` [I-18] the same measures were “slightly weaker fluorescence signals” and “significant differences in the uptake”.
As for `O=C(c1ccc2[nH]ccc2c1)N1CCN(C(=O)c2ccccc2-c2c3ccc(=O)cc-3oc3cc(O)ccc23)CC1` [I-20], in assay [1], the fluorescence signal entry was “slightly weaker fluorescence signals”; the “difference” value is recorded as “significant differences in the uptake”.
In the case of `O=C(c1ccccc1-c1c2ccc(=O)cc-2oc2cc(O)ccc12)N1CCN(C(=O)C2(F)C#CCCCCC2)CC1` (stereo not shown) [I-1], the “fluorescence generated by the MSF in CLSM images” value with MEB4 cells (MEB4 cells, Fig. 2) is listed as “can be recognized throughout the cytoplasm”. Besides, the “uptake by the cells” value with MEB4 cells (MEB4 malignant melanoma cells) is recorded as “effectively been taken up”. In addition, in the assay on HeLa cells (HeLa cells, Fig. 1), the “fluorescence originating from the MSF in CLSM images” value is listed as “no fluorescence apparent”. Besides, the “uptake by the cells” value with HeLa cells (HeLa non-affected cells) is given as “not significantly been taken up”. In assay [1], the fluorescence signal entry is reported as “high fluorescence signal”; the “difference” value is on record as “large difference in the uptake”.
Regarding `O=C(c1ccc(OC2C#CCCCCC2)cc1)N1CCN(C(=O)c2ccccc2-c2c3ccc(=O)cc-3oc3cc(O)ccc23)CC1` (stereo not shown) [I-14], in assay [1], the fluorescence signal entry is on record as “slightly weaker fluorescence signals”; the “difference” value was “significant differences in the uptake”.
Take `O=C(OCC1CSCC#CCO1)N1CCN(C(=O)c2ccccc2-c2c3ccc(=O)cc-3oc3cc(O)ccc23)CC1` (stereo not shown) [I-17]: in assay [1], the fluorescence signal entry was “slightly weaker fluorescence signals”; the “difference” value is “significant differences in the uptake”.
